# From US20250099952A1, “MICROFLUIDIC DEVICE AND USES THEREOF” (CASE WESTERN RESERVE UNIVERSITY, priority 2019, published 2025)
# Experiments:
# [1] = test system: RBCs from healthy donors; assay: Occlusion Chip microfluidic assessment of RBC deformability (RBC Occlusion Index) after chemical treatment; assay type: cell-based, human; conditions: for RBC Occlusion Index (ROI), mean±SEM: directly suspended in PBS, N=4
# Protocol: Whole blood samples were centrifuged at 500×g for 5 min at 4° C., plasma was removed, and the RBCs were washed twice in PBS, and re-suspended at a 20% hematocrit value. The Occlusion Chip was placed on an Olympus IX83 inverted motorized microscope stage for high-resolution imaging. The RBC samples were perfused through the microchannel under constant pressure for 20 min (FIGS. 12A & B). Non-retained RBCs were rinsed away by injecting PBS into the microchannel under the same pressure. […] Phase contrast, bright field, and fluorescent images were recorded at 20× using the Olympus Cell Sense live imaging software (excitation/emission wavelength, 488/505-580 for Green Fluorescent Protein, GFP). Post processing of recorded images and cell counting were performed using Adobe Photoshop (San Jose, CA). Oxygen tension was controlled in hypoxia experiments using a custom designed gas exchange setup as described in Supplementary Materials. Scanning electron microscopy was performed on the micropillars and RBCs.
# Glutaraldehyde, a non-specific protein cross-linker, and diamide, a thiol group oxidant inducing disulfide cross-linking of band 3, are used to stiffen RBCs in order to mimic impaired RBC deformability, seen in pathological conditions. Precisely controlled exposure of RBC to graded concentrations of glutaraldehyde or diamide was utilized to verify Occlusion Chip functionality. RBCs from healthy donors exposed to graded concentrations, 0.00% (as control), 0.02%, 0.04%, and 0.08% (w/v), of glutaraldehyde were mixed with untreated normal RBCs to achieve 1% treated cells and were suspended in PBS for microfluidic assessment. RBCs exposed to same graded concentrations of diamide were directly suspended in PBS for microfluidic assessment. […] The retained RBCs were fluorescently labeled with anti-glycophorin A (CD235a, Abcam, Cambridge, MA) antibodies. […] At the end of the test, numbers of occlusions induced by poorly-deformable RBCs within each micropillar array were quantified (FIGS. 7D&E). […] To assess the overall RBC deformability of specific samples, we assigned different weight to the occlusion events quantitated within different micropillar arrays, and defined a new parameter ‘RBC Occlusion Index’ (ROI) using the following equation,
# Mercury is a toxic heavy metal that binds to RBC membranes with high affinity and results in RBC hemolysis. Mercuric ions induce membrane conformational changes and impair RBC deformability.
# [2] = test system: RBCs in whole venous blood; assay: Fibrinogen-accelerated RBC sedimentation in whole blood; assay type: cell-based, human; conditions: fibrinogen stock 40 mg/ml mixed with whole blood 1:9 to 1:1 (v/v), monitored over 20 min, compared to PBS
# Protocol: The experiments are performed immediately after blood draw through […]. We examine the effect of additional fibrinogen on RBC sedimentation, which has been reported to have a marked correlation between the concentration of and the erythrocyte sedimentation rate.
# Whole venous blood was drawn with anticoagulated EDTA into a 1.5 ml microcentrifuge tube. Fibrinogen stock solution with the concentration of 40 mg/ml (in PBS) was mixed with whole blood at ratios of 1:9, 1:4, 1:2, and 1:1 (v/v) and the final volume of the mixtures was adjusted to 500 μl. Control groups were mixtures of whole blood and PBS at the same volume ratios. The sedimentation of RBCs was monitored over a period of 20 minutes. […] In addition, fibrinogen mediated RBC sedimentation became stable when it approached 20 min, and no more noticeable difference was observed between blood samples with different concentrations of fibrinogen. Therefore, the 1:9 fibrinogen and whole blood mixture (4 mg/ml final fibrinogen concentration) was selected based on a cost-effective point of view, from which 150 μl plasma was collected for further processing.
compound,measurement,setting,value
CN(C)C(=O)/N=N/C(=O)N(C)C [diamide],"RBC Occlusion Index (ROI), mean±SEM",[1]; RBCs exposed to 0.02% diamide,329.9±37.2
same,"RBC Occlusion Index (ROI), mean±SEM",[1]; RBCs exposed to 0.04% diamide,459.8±71.6
same,"RBC Occlusion Index (ROI), mean±SEM",[1]; RBCs exposed to 0.08% diamide,645.1±87.6
same,effect on RBC stiffness and membrane morphology,"[1]; diamide exposure, micropillar device 20 μm to 4 μm",induce structural stiffening of RBCs without interrupting the cell membrane morphology
fibrinogen,"RBC sedimentation (visual, words)",[2],significantly accelerated the sedimentation of RBCs compared to PBS
mercuric ion,effect on RBC deformability,[1],moderately reduces RBC deformability
O=CCCCC=O [glutaraldehyde],increase in total occlusion level compared to the control,[1]; 0.08% (w/v) glutaraldehyde,more than 16 fold
